Measurements from US12673946B2, “Pyrimidin-4(3H)-one derivatives as TRPV4 antagonists” (RaQualia Pharma Inc., priority 2020, dated 2026).
pIC50: −log10 of the molar value.

Molecular target: T1, human TRPV4 (Homo sapiens, UniProt Q9HBA0)
T1 construct: host or cells: tetracycline-inducible Flp-In T-REx 293 cells
Experiment: Hypotonicity-induced Ca2+ influx (Fluo-4, FDSS)
Type: cell-based
In short: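 Flp-In T-REx 293 cells with tetracycline-induced human TRPV4, loaded with Fluo-4 for 60 min at 25 °C. Compound added 5 min before hypotonic mannitol/CaCl2 solution. Ca2+ signal recorded for 4.5 min on FDSS.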

[1] = Flp-In T-REx 293 cells expressing human TRPV4, examples listed under heading 'Human IC50<50 nM'
[2] = Flp-In T-REx 293 cells stably expressing human TRPV4, compounds listed by potency bin (<10 nM Tables 96-1/96-2, <3 nM Table 97)

T1 sequence (Q9HBA0 whole entry): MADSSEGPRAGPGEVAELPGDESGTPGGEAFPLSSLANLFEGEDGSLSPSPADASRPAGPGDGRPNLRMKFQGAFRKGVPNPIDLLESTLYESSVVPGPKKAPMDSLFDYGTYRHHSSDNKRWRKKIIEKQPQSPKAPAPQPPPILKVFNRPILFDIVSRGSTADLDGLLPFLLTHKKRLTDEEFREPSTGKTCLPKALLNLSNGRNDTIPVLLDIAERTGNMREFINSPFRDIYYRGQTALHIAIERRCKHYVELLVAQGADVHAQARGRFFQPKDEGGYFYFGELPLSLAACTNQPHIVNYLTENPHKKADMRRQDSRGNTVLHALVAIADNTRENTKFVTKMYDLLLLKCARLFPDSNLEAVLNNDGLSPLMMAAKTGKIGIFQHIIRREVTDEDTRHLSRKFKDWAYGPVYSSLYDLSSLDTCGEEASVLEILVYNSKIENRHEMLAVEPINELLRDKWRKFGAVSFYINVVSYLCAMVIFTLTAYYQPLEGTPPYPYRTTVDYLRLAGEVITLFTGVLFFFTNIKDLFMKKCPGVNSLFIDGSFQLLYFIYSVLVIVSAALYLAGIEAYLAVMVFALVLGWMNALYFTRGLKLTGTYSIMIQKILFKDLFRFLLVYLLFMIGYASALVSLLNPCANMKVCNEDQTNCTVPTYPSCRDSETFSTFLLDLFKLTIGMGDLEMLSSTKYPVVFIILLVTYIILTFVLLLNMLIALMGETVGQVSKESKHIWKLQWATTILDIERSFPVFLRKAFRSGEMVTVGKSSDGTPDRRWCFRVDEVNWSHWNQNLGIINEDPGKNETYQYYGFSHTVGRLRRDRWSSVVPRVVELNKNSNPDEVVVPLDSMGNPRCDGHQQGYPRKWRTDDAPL

| Structure (SMILES) | pIC50 [1] | pIC50 [2] |
| --- | --- | --- |
| CC(C)(C)c1cccc(-c2cccc([C@@H](O)C(=O)N3CCCc4nc(C5(c6cccs6)CC5)[nH]c(=O)c4C3)c2)c1 [53-4] | > 7.30 | > 8.00 |
| O=C(C(O)c1cccc(SC(F)(F)F)c1)N1CCCc2nc(C3(c4cccc(F)c4)CC3)[nH]c(=O)c2C1 (stereo not shown) [17-30] | > 7.30 | > 8.00 |
| O=C([C@H](O)c1cccc(C(F)(F)F)c1)N1CCCc2nc(C3(c4cccc(-c5ccncc5)c4)CC3)[nH]c(=O)c2C1 [42-17] | > 7.30 | > 8.00 |
| CC(C)C(=O)N1CCN(c2ccc(-c3cccc(C4(c5nc6c(c(=O)[nH]5)CN(C(=O)[C@H](O)c5cccc(C(F)(F)F)c5)CCC6)CC4)c3)cn2)CC1 [42-89] | > 7.30 | > 8.00 |
| O=C([C@H](O)c1cccc(C(F)(F)F)c1)N1CCCc2nc(C3(c4cccc(-c5ccc6ncsc6c5)c4)CC3)[nH]c(=O)c2C1 [17-94] | > 7.30 | > 8.00 |
| O=C([C@H](O)c1cccc(Cl)c1)N1CCCc2nc(C3(c4cccc(Cl)c4)CC3)[nH]c(=O)c2C1 [17-29] | > 7.30 | > 8.00 |
| O=C(C(O)c1cccc(-c2cccc(F)c2)c1)N1CCc2nc(C3(c4cccs4)CC3)[nH]c(=O)c2C1 (stereo not shown) [15-11] | > 7.30 |  |
| CC(C)c1cncc(C2(c3nc4c(c(=O)[nH]3)CN(C(=O)C(F)(F)c3cccc(C(F)(F)F)c3)CCC4)CC2)c1 [22-1] | > 7.30 | > 8.52 |
| O=C([C@H](O)c1cccc(C(F)(F)F)c1)N1CCc2nc(C3(c4cncc(C5CCC(F)(F)CC5)c4)CC3)[nH]c(=O)c2C1 [28-4] | > 7.30 | > 8.00 |
| COc1cc(-c2cccc(C3(c4nc5c(c(=O)[nH]4)CN(C(=O)[C@H](O)c4cccc(C(F)(F)F)c4)CCC5)CC3)c2)ccn1 [42-2] | > 7.30 | > 8.52 |
| COCCn1cc(-c2cccc(C3(c4nc5c(c(=O)[nH]4)CN(C(=O)[C@H](O)c4cccc(C(F)(F)F)c4)CCC5)CC3)c2)cn1 [42-23] | > 7.30 | > 8.00 |
| O=C(C(O)c1cccc(SC(F)(F)F)c1)N1CCc2nc(C3(c4ccccc4)CC3)[nH]c(=O)c2C1 (stereo not shown) [14-25] | > 7.30 |  |
| O=C([C@H](O)c1cccc(Cl)c1)N1CCCc2nc(C3(c4cccc(-c5ccc(Cl)cc5)c4)CC3)[nH]c(=O)c2C1 [40-7] | > 7.30 | > 8.00 |
| O=C(N1CCCc2nc(C3(c4cccs4)CC3)[nH]c(=O)c2C1)C(F)(F)c1cccc(Cl)c1 [21-2] | > 7.30 | > 8.00 |
| O=C([C@H](O)c1cccc(C(F)(F)F)c1)N1CCc2nc(C3(c4cccc(-c5ccccc5)c4)CC3)[nH]c(=O)c2C1 [37-1] | > 7.30 | > 8.52 |
| CN(C(=O)c1csc(C2(c3nc4c(c(=O)[nH]3)CN(C(=O)[C@H](O)c3cccc(C(F)(F)F)c3)CCC4)CC2)c1)C(c1ccccc1)c1ccccc1 [59-13] | > 7.30 | > 8.00 |
| CC(C)(C)c1ccc(-c2cccc(C(O)C(=O)N3CCc4nc(C5(c6ccccc6)CC5)[nH]c(=O)c4C3)c2)cc1 (stereo not shown) [44-42] | > 7.30 |  |
| O=C(C(O)c1cccc(C(F)(F)F)c1F)N1CCCc2nc(C3(c4ccccc4)CC3)[nH]c(=O)c2C1 (stereo not shown) [17-20] | > 7.30 | > 8.00 |
| CN(Cc1ccccc1)C(=O)c1csc(C2(c3nc4c(c(=O)[nH]3)CN(C(=O)[C@H](O)c3cccc(C(F)(F)F)c3)CCC4)CC2)c1 [59-3] | > 7.30 | > 8.00 |
| O=C([C@H](O)c1cccc(Cl)c1)N1CCc2nc(C3(c4cccc(-c5ccccc5)c4)CC3)[nH]c(=O)c2C1 [14-10] | > 7.30 | > 8.00 |

| Structure (SMILES) | pIC50 [1] | pIC50 [2] |
| --- | --- | --- |
| O=C([C@H](O)c1cccc(C(F)(F)F)c1)N1CCCc2nc(C3(c4cccc(-c5ccc(F)cc5)c4)CC3)[nH]c(=O)c2C1 [42-59] | > 7.30 | > 8.00 |
| O=C(C(O)c1cccc(Cl)c1F)N1CCCc2nc(C3(c4cncc(-c5ccccc5)c4)CC3)[nH]c(=O)c2C1 (stereo not shown) [19-11] | > 7.30 | > 8.52 |
| O=C([C@H](O)c1cccc(Cl)c1)N1CCCc2nc(C3(c4ccccc4)CC3)[nH]c(=O)c2C1 [10-7] | > 7.30 |  |
| O=C([C@H](O)c1cccc(-c2cccc(OC(F)(F)F)c2)c1)N1CCCc2c(nc(C3(c4ccccc4)CC3)[nH]c2=O)C1 [49-56] | > 7.30 | > 8.00 |
| N#Cc1cc(Cl)cc(-c2cccc(CC(=O)N3CCc4nc(C5(c6cccc(Cl)c6)CC5)[nH]c(=O)c4C3)c2)c1 [14-121] | > 7.30 |  |
| O=C([C@H](O)c1cccc(Cl)c1)N1CCc2nc(C3(c4cccc(F)c4)CC3)[nH]c(=O)c2C1 [3-31] | > 7.30 |  |
| Cc1ccccc1-c1cccc(C2(c3nc4c(c(=O)[nH]3)CN(C(=O)[C@H](O)c3cccc(C(F)(F)F)c3)CCC4)CC2)c1 [42-60] | > 7.30 | > 8.00 |
| O=C(Cc1ccccc1-c1ccccc1)N1CCCc2nc(C3(c4cccc(Cl)c4)CC3)[nH]c(=O)c2C1 [17-80] | > 7.30 |  |
| CC(C)c1cccc(-c2cccc([C@@H](O)C(=O)N3CCCc4nc(C5(c6cccc(Cl)c6)CC5)[nH]c(=O)c4C3)c2)c1 [50-9] | > 7.30 | > 8.52 |
| O=C(Cc1cccc(-c2cccc(C(F)(F)F)c2)c1)N1CCCc2nc(C3(c4cccc(C5CCCCC5)c4)CC3)[nH]c(=O)c2C1 [31-14] | > 7.30 | > 8.00 |
| O=C(Cc1cccc(OCc2ccccc2)c1)N1CCCc2nc(C3(c4ccccc4)CC3)[nH]c(=O)c2C1 [17-146] | > 7.30 | > 8.00 |
| CC(C)c1cccc(C2(c3nc4c(c(=O)[nH]3)CN(C(=O)C(O)c3cccc(-c5cccc(OC(F)(F)F)c5)c3)CCC4)CC2)c1 (stereo not shown) [17-49] | > 7.30 |  |
| CCc1csc(C2(c3nc4c(c(=O)[nH]3)CN(C(=O)[C@H](O)c3cccc(C(F)(F)F)c3)CC4)CC2)c1 [15-5] | > 7.30 | > 8.00 |
| O=C([C@H](O)c1cccc(Br)c1)N1CCCc2nc(C3(c4ccccc4)CC3)[nH]c(=O)c2C1 [17-77] | > 7.30 | > 8.00 |
| O=C(C(O)c1cccc(-c2ccc(Cl)cc2)c1)N1CCCc2nc(C3(c4ccccc4)CC3)[nH]c(=O)c2C1 (stereo not shown) [49-3] | > 7.30 | > 8.00 |
| O=C([C@H](O)c1cccc(Cl)c1)N1CCc2nc(C3(c4cccc(Cl)c4)CC3)[nH]c(=O)c2C1 [3-50] | > 7.30 |  |
| O=C(C(O)c1cccc(Oc2ccccc2)c1)N1CCCc2nc(C3(c4ccccc4)CC3)[nH]c(=O)c2C1 (stereo not shown) [17-85] | > 7.30 |  |
| O=C(C(O)c1cccc(-c2cccc(SC(F)(F)F)c2)c1)N1CCc2nc(C3(c4ccccc4)CC3)[nH]c(=O)c2C1 (stereo not shown) [44-18] | > 7.30 | > 8.00 |
| O=C(C(O)c1cccc(-c2cc3ccccc3s2)c1)N1CCc2nc(C3(c4ccccc4)CC3)[nH]c(=O)c2C1 (stereo not shown) [44-9] | > 7.30 | > 8.00 |
| O=C([C@H](O)c1cccc(-c2cc(F)cc(Cl)c2)c1)N1CCc2nc(C3(c4cccc(Cl)c4)CC3)[nH]c(=O)c2C1 [45-9] | > 7.30 |  |

| Structure (SMILES) | pIC50 [1] | pIC50 [2] |
| --- | --- | --- |
| O=C(N1CCCc2nc(C3(c4cccs4)CC3)[nH]c(=O)c2C1)C(F)(F)c1cccc(C(F)(F)F)c1 [21-1] | > 7.30 | > 8.52 |
| CS(=O)(=O)c1cccc(-c2cccc(C3(c4nc5c(c(=O)[nH]4)CN(C(=O)[C@H](O)c4cccc(C(F)(F)F)c4)CCC5)CC3)c2)c1 [42-15] | > 7.30 | > 8.52 |
| O=C([C@H](O)c1cccc(-c2ccc(Cl)c(C(F)(F)F)c2)c1)N1CCc2nc(C3(c4cccc(Cl)c4)CC3)[nH]c(=O)c2C1 [45-3] | > 7.30 | > 8.00 |
| O=C(C(O)c1cccc(F)c1F)N1CCc2nc(C3(c4cccc(F)c4)CC3)[nH]c(=O)c2C1 (stereo not shown) [3-28] | > 7.30 |  |
| CN(C)c1ccc(-c2cccc(C3(c4nc5c(c(=O)[nH]4)CN(C(=O)[C@H](O)c4cccc(C(F)(F)F)c4)CCC5)CC3)c2)cn1 [42-13] | > 7.30 | > 8.52 |
| O=C([C@H](O)c1cccc(C(F)(F)F)c1)N1CCCc2nc(C3(c4cc(CCc5ccccc5)cs4)CC3)[nH]c(=O)c2C1 [30-9] | > 7.30 | > 8.00 |
| CC(C)c1csc(C2(c3nc4c(c(=O)[nH]3)CN(C(=O)[C@H](O)c3cccc(Cl)c3)CC4)CC2)c1 [15-8] | > 7.30 | > 8.00 |
| O=C([C@H](O)c1cccc(Cl)c1)N1CCCc2nc(C3(c4cccc(F)c4)CC3)[nH]c(=O)c2C1 [17-57] | > 7.30 |  |
| O=C(C(O)c1ccnc(N2CCCCCC2)c1)N1CCc2nc(C3(c4ccccc4)CC3)[nH]c(=O)c2C1 (stereo not shown) [11-3] | > 7.30 |  |
| CC(C)c1cncc(C2(c3nc4c(c(=O)[nH]3)CN(C(=O)C(O)c3cccc(C(C)(C)C)c3)CCC4)CC2)c1 (stereo not shown) [19-4] | > 7.30 | > 8.00 |
| O=C([C@H](O)c1cccc(C(F)(F)F)c1)N1CCCc2nc(C3(c4cccc(-c5ccccc5F)c4)CC3)[nH]c(=O)c2C1 [42-56] | > 7.30 | > 8.00 |
| CC(C)c1cccc(C(O)C(=O)N2CCCc3nc(C4(c5ccccc5)CC4)[nH]c(=O)c3C2)c1 (stereo not shown) [17-59] | > 7.30 |  |
| O=C(C(O)c1cccc(OCc2ccccc2)c1)N1CCCc2nc(C3(c4ccccc4)CC3)[nH]c(=O)c2C1 (stereo not shown) [17-76] | > 7.30 | > 8.00 |
| O=C([C@H](O)c1cccc(Cl)c1)N1CCc2nc(C3(c4cccc(Oc5ccccc5)c4)CC3)[nH]c(=O)c2C1 [14-4] | > 7.30 | > 8.00 |
| CC1(C)CCC(c2cccc(C3(c4nc5c(c(=O)[nH]4)CN(C(=O)[C@H](O)c4cccc(C(F)(F)F)c4)CCC5)CC3)c2)CC1 [31-3] | > 7.30 | > 8.52 |
| CC(C)c1cccc(C2(c3nc4c(c(=O)[nH]3)CN(C(=O)C(O)c3cccc(SC(F)(F)F)c3)CCC4)CC2)c1 (stereo not shown) [17-44] | > 7.30 |  |
| CC(C)(C)c1cccc(-c2cccc(C(O)C(=O)N3CCCc4nc(C5(c6ccccc6)CC5)[nH]c(=O)c4C3)c2)c1 (stereo not shown) [49-10] | > 7.30 | > 8.00 |
| CN(C)C(=O)c1cccc(-c2cccc(C3(c4nc5c(c(=O)[nH]4)CN(C(=O)[C@H](O)c4cccc(C(F)(F)F)c4)CCC5)CC3)c2)c1 [42-31] | > 7.30 | > 8.00 |
